Experimental data from patent US6540792B1, “Cellulose fiber-containing structure” (priority 1999, dated 2003).

Assay: Inorganic value/organic value ratio calculated by the organic concept (Fujita)
Conditions: concluded from the inorganic value/organic value ratio
From the text: The “inorganic value/organic value ratio” in this invention is an indicator contrived by Minoru Fujita, to express the polarity of various organic compounds in view of organic concept [see Revised Edition, Science of Chemical Experiments, Organic Chemistry, Kawade shobo (1971)]. For the ratio, the organic value of one carbon (C) atom is decided as 20, and the inorganic and organic values of various polar groups are decided in reference to it, as shown in Table 1. The inorganic value/organic value ratio refers to the ratio of the sum of inorganic values to the sum of organic values.
According to this organic concept, for example, the inorganic value/organic value ratio of polyethylene terephthalate can be calculated as 0.7. In this invention, attention is paid to the affinity between synthetic fibers and an antimicrobial agent based on the value calculated according to the organic concept, and an antimicrobial agent with the inorganic value/organic value ratio kept in a predetermined range is caused to adhere to or to be exhausted and diffused into the synthetic fibers.
For example, in the case of 2,3,5,6-tetrachloro-4-hydroxypyridine, since it has one benzene nucleus, four —Cl groups, one —OH group and one —NR2 group, the inorganic value is 265. On the other hand, since it has five C (carbon) atoms and four —Cl groups, the organic value is 180. […]

In the case of `[Na+].[O-][n+]1ccccc1[S-]` [2-pyridylthiol-1-oxide sodium], the affinity to polyesters is reported as “poor”.
